Measurements: ChEMBL document CHEMBL1201862, “PubChem BioAssay data set” (2004)
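Interpolation was linear, between the two tested concentrations surrounding the appropriate level; five concentrations were tested over 48 hours in 96-well plates. At the GI50, growth is halved.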 Active and inactive are the calls of the source. Cut-off read from the data, not from the text of the source: active = GI50 up to about 1.1 µM and inactive = higher.

What was measured:
Test in all cases: NCI anticancer screen, dose series, 48 h
CCRF-CEM = test system: CCRF-CEM
COLO 205 = test system: COLO 205
HCT-15 = test system: HCT-15
HL-60 = test system: HL-60
Hs-578T = test system: Hs-578T
K562 = test system: K562
KM12 = test system: KM12
MDA-MB-231 = test system: MDA-MB-231
MDA-N = test system: MDA-N
MOLT-4 = test system: MOLT-4
NCI-H226 = test system: NCI-H226
OVCAR-5 = test system: OVCAR-5
OVCAR-8 = test system: OVCAR-8
SF-268 = test system: SF-268
SNB-19 = test system: SNB-19
SW-620 = test system: SW-620
CAKI-1 = test system: CAKI-1
HOP-92 = test system: HOP-92
M14 = test system: M14

| Structure (SMILES) | GI50 (CCRF-CEM) | GI50 (COLO 205) | GI50 (HCT-15) | GI50 (HL-60) | GI50 (Hs-578T) | GI50 (K562) | GI50 (KM12) | GI50 (MDA-MB-231) | GI50 (MDA-N) | GI50 (MOLT-4) | GI50 (NCI-H226) | GI50 (OVCAR-5) | GI50 (OVCAR-8) | GI50 (SF-268) | GI50 (SNB-19) | GI50 (SW-620) | GI50 (CAKI-1) | GI50 (HOP-92) | GI50 (M14) |
| --- | --- | --- | --- | --- | --- | --- | --- | --- | --- | --- | --- | --- | --- | --- | --- | --- | --- | --- | --- |
| [O-][S+](Nc1ccccc1)c1ccc(-c2ccccc2)cc1 (stereo not given) | > 100 µM (inactive) | 72.3 µM (inactive) | > 100 µM | > 100 µM (inactive) | > 100 µM (inactive) | > 100 µM (inactive) | 58.6 µM (inactive) | > 100 µM (inactive) | > 100 µM (inactive) | > 100 µM (inactive) | > 100 µM (inactive) | > 100 µM (inactive) | 45.8 µM (inactive) | > 100 µM (inactive) | > 100 µM (inactive) | > 100 µM (inactive) | – | – | – |
| Nc1ncnc2c1ncn2Cc1cccc(CCl)c1 | – | – | 17.9 µM | 15 µM (inactive) | 22.8 µM (inactive) | 21.9 µM (inactive) | 15.1 µM (inactive) | 16.6 µM (inactive) | – | 15.2 µM (inactive) | 16 µM (inactive) | 14.5 µM (inactive) | 16.1 µM (inactive) | 14.7 µM (inactive) | – | 12.4 µM (inactive) | 18.8 µM (inactive) | 19.7 µM (inactive) | 14.1 µM (inactive) |
| COC(=O)C12C(=O)CC3CCC1C32C(=O)OC (stereo not given) | > 100 µM (inactive) | > 100 µM (inactive) | > 100 µM | – | – | > 100 µM (inactive) | > 100 µM (inactive) | > 100 µM (inactive) | > 100 µM (inactive) | > 100 µM (inactive) | > 100 µM (inactive) | > 100 µM (inactive) | > 100 µM (inactive) | > 100 µM (inactive) | > 100 µM (inactive) | > 100 µM (inactive) | > 100 µM (inactive) | – | > 100 µM (inactive) |
| Oc1ccc2c(c1)-c1c(c3cc(O)ccc3n1CCN1CCOCC1)CC2 | 22.8 µM (inactive) | 17.4 µM (inactive) | 19.2 µM | 23.2 µM (inactive) | 27 µM (inactive) | 20 µM (inactive) | 32.7 µM (inactive) | 17.6 µM (inactive) | – | 19.6 µM (inactive) | 18.5 µM (inactive) | 34.8 µM (inactive) | 30.4 µM (inactive) | 44.8 µM (inactive) | 29 µM (inactive) | 23 µM (inactive) | 24.9 µM (inactive) | 26.1 µM (inactive) | 19.5 µM (inactive) |
| CC(=O)OC(Cn1cncn1)(Cn1cncn1)c1ccc(Cl)cc1Cl | > 100 µM (inactive) | > 100 µM (inactive) | > 100 µM | > 100 µM (inactive) | > 100 µM (inactive) | > 100 µM (inactive) | > 100 µM (inactive) | > 100 µM (inactive) | – | > 100 µM (inactive) | > 100 µM (inactive) | > 100 µM (inactive) | > 100 µM (inactive) | > 100 µM (inactive) | > 100 µM (inactive) | > 100 µM (inactive) | > 100 µM (inactive) | > 100 µM (inactive) | > 100 µM (inactive) |
| O=C(c1cccs1)N(C(=O)N1CCCCC1)c1ccccc1 | > 100 µM (inactive) | > 100 µM (inactive) | > 100 µM | > 100 µM (inactive) | 84.7 µM (inactive) | > 100 µM (inactive) | > 100 µM (inactive) | > 100 µM (inactive) | > 100 µM (inactive) | > 100 µM (inactive) | > 100 µM (inactive) | – | > 100 µM (inactive) | > 100 µM (inactive) | > 100 µM (inactive) | > 100 µM (inactive) | > 100 µM (inactive) | – | > 100 µM (inactive) |
| O=S(=O)(O)C1CCC(O)C2NCCCC21 (stereo not given) | – | > 100 µM (inactive) | > 100 µM | 20.7 µM (inactive) | > 100 µM (inactive) | > 100 µM (inactive) | > 100 µM (inactive) | > 100 µM (inactive) | – | > 100 µM (inactive) | > 100 µM (inactive) | > 100 µM (inactive) | > 100 µM (inactive) | > 100 µM (inactive) | > 100 µM (inactive) | > 100 µM (inactive) | > 100 µM (inactive) | > 100 µM (inactive) | > 100 µM (inactive) |
| C=C(C)C(=O)O[C@H]1CC2(CO)O[C@@H]2CC/C(COC(C)=O)=C/C2OC(=O)C(=C)[C@@H]21 (stereo not given in full) | 15.7 µM (inactive) | 18.2 µM (inactive) | 26.2 µM | 8.67 µM (inactive) | > 92.5 µM (inactive) | 23.9 µM (inactive) | > 85.3 µM (inactive) | 61.4 µM (inactive) | – | 7.93 µM (inactive) | > 46.1 µM (inactive) | > 100 µM (inactive) | 22 µM (inactive) | > 100 µM (inactive) | > 100 µM (inactive) | 19.6 µM (inactive) | 28.8 µM (inactive) | 26.4 µM (inactive) | 21 µM (inactive) |
